Laboratory results taken from patent US6103888A, “Mammalian cationic proteins having lipopolysaccharide binding and anti-coagulant activity” (priority 1999, dated 2000).

Key:
RAW 264.7 cells [1] = assay: LPS- or IFNγ-induced reactive nitrogen intermediate (RNI) production, Griess nitrite assay; type: cell-based, murine
Description: From the sequence of the CAP18 cDNA, it was apparent that the putative N-terminal peptide of CAP18 was in fact an internal fragment of the CAP18 protein. We therefore tried to reconfirm the original protein sequence. Neutrophil-derived heparin bound cationic proteins were prepared as described above and applied to a C18 reverse phase HPLC (FIG. 1). We sequenced the major peaks. Peaks at fractions 14.5 and 15.2 correspond to defensins MCP1 and MCP2 (Territo et al. (1989) J. Clin. Invest. 84:2017-2019), respectively. Fraction 25.8 is macrophage related protein 14 (MRP14) (Odink et al. (1987) Nature 330:80-82). The fraction at 20.3 minutes corresponds to a fragment of CAP18 of approximately 4-5 kD. […] The murine macrophage cell line RAW 264.7 (obtained from ATCC) and thioglycollate-elicited murine peritoneal exudate cells are used to produce RNI. Cells are cultured at 1×10^6 /ml. in RPMI-1640 +2.5% FCS in 24 well plates in the presence or absence of different concentrations of LPS or murine rlFNγ. After 24 hr. incubation at 37° C., the cell free supernatant is collected and tested for the presence of RNI. Accumulation of nitrite in the medium is measured by a calorimetric assay based on the Griess reaction (Green et al. (1982) Anal. Biochem. 126:11) using sodium nitrite as standards. Sample (50 μl) is mixed with 50 μl of Griess reagent (1% sulfanilamide, 0.1% naphthalene diamine dihydrochloride, 2.5% H3 PO4) and after 10 min. at room temperature absorbance is read at 570 nm.

E. coli (HB101) = assay: Bacterial proliferation, 3H-thymidine incorporation assay; type: cell-based; conditions: for Percent inhibition of proliferation: E. coli (HB101)
Description: (§1) Bacteria were grown in trypticase broth overnight.
(§2) To corroborate the anti-bacterial activity shown in the CFU assays, inhibition of proliferation of bacteria was tested directly using a ^3 H-thymidine incorporation assay. […] In summary although there is some strain to strain variation in the IC50, all of the Gram-negativestrains tested in two different types of assays were sensitive to these anti-microbial peptides.

Klebsiella pneumoniae = assay: as above; type: cell-based
Description: as §1, §2

Pseudomonas aeruginosa = assay: as above; type: cell-based
Description: as §1, §2

Pseudomonas apacia = assay: as above; type: cell-based
Description: as §1, §2

[2] = system: Staphylococcus aureus, coagulase positive; assay: as above; type: cell-based
Description: as §1, §2

Streptococcus pneumoniae = assay: as above; type: cell-based
Description: as §1, §2

Streptococcus pyogenes = assay: as above; type: cell-based
Description: as §1, §2

RAW 264.7 cells [3] = assay: Reversal of LPS-induced inhibition of cell proliferation; type: cell-based, murine; conditions: cultures containing 5 ng/ml of LPS
Description: When LPS is added to RAW 264.7 cells it causes a dose-dependent inhibition of proliferation with differentiation of the cells into a macrophasge phenotype.

[4] = system: thioglycollate-stimulated murine peritoneal macrophages; assay: LPS-induced tissue factor generation by macrophages (clotting assay); type: cell-based
Description: Tissue factor assay. Salmonella minnesota smooth LPS was incubated with each peptide (1 μg/ml) for 5 min., then the mixture was added to peritoneal murine macrophages obtained 4 days after thioglycollate stimulation. Cells were cultured for 6 hours prior to assay of tissue factor by clotting assay.
Various concentrations of Salmonella minnesota smooth LPS were incubated with each peptide (197 (RNIP), 36-1, 32-1, and 50-2) at 37° C. for 5 minutes prior to mixing with thioglycollate-stimulated murine peritoneal macrophages. Production of tissue factor after 6 hr. was measured by clotting assay. […] In the absence of LPS no tissue factor is synthesized by these cells.

prothrombin (factor II) = prothrombin (factor II) (Homo sapiens, UniProt P00734); assay: Prothrombin activation by Echis Carinatus venom (ECV); type: biochemical
Description: Prothrombin activation by Echis Carinatus venom (ECV). A reaction mixture of prothrombin (factor II) (0.1 unit/ml, 200 μl), ECV (1 unit/ml, 200 μl), various concentration of peptide (70 μl), 50 μl of 25 mM-CaCl2 and 180 μl of Tris buffer was incubated at 37° C. for 10 min. To 300 μl of the reaction mixture, 60 μl of 4 mM-thrombin substrate and 240 μl of buffer was added and further incubated for 15 min.

E. coli O9:K39 K- strain = assay: Antibacterial CFU assay

RNIP: rabbit reactive nitrogen inhibitory protein, amino acids 135-171 of SEQ ID NO:4; purified from granulocytes (Tables 1-3) or synthetic (#197) (GLRKRLRKFRNKIKEKLKKIGQKIQGLLPKLAPRTDY)
concentrations at which peptides are active in the bioassay (RAW 264.7 cells [1]; day-to-day variation in the bioassay): 10 to 50 nM
inhibition of LPS-induced RNI production (in words) (RAW 264.7 cells [1]; macrophages / RAW 264.7 cells): active
Percent inhibition of proliferation (E. coli (HB101); RNIP 0.6 μg/ml): 81%
Percent inhibition of proliferation (E. coli (HB101); RNIP 1.25 μg/ml): 88%
Percent inhibition of proliferation (E. coli (HB101); RNIP 2.5 μg/ml): 99%
Percent inhibition of proliferation (E. coli (HB101); RNIP 5.0 μg/ml): 99%
Inhibition (%) of E. coli (HB101) proliferation (E. coli (HB101); RNIP 2.5 μg/ml, FCS concentration 0 %): 94 ± 10.3%
Inhibition (%) of E. coli (HB101) proliferation (E. coli (HB101); RNIP 2.5 μg/ml, FCS concentration 1 %): 91 ± 10.9%
Inhibition (%) of E. coli (HB101) proliferation (E. coli (HB101); RNIP 2.5 μg/ml, FCS concentration 5 %): 87 ± 3.1%
Inhibition (%) of E. coli (HB101) proliferation (E. coli (HB101); RNIP 2.5 μg/ml, FCS concentration 10 %): 78 ± 5.5%
Percent inhibition of proliferation (Klebsiella pneumoniae; RNIP 0.6 μg/ml): 4%
Percent inhibition of proliferation (Klebsiella pneumoniae; RNIP 1.25 μg/ml): 14%
Percent inhibition of proliferation (Klebsiella pneumoniae; RNIP 2.5 μg/ml): 17%
Percent inhibition of proliferation (Klebsiella pneumoniae; RNIP 5.0 μg/ml): 60%
Percent inhibition of proliferation (Pseudomonas aeruginosa; RNIP 0.6 μg/ml): 75%
Percent inhibition of proliferation (Pseudomonas aeruginosa; RNIP 1.25 μg/ml): 82%
Percent inhibition of proliferation (Pseudomonas aeruginosa; RNIP 2.5 μg/ml): 96%
Percent inhibition of proliferation (Pseudomonas aeruginosa; RNIP 5.0 μg/ml): 99%
Percent inhibition of proliferation (Pseudomonas apacia; RNIP 0.6 μg/ml): 81%
Percent inhibition of proliferation (Pseudomonas apacia; RNIP 1.25 μg/ml): 80%
Percent inhibition of proliferation (Pseudomonas apacia; RNIP 2.5 μg/ml): 99%
Percent inhibition of proliferation (Pseudomonas apacia; RNIP 5.0 μg/ml): 99%
Percent inhibition of proliferation ([2]; RNIP 0.6 μg/ml): 23%
Percent inhibition of proliferation ([2]; RNIP 1.25 μg/ml): 57%
Percent inhibition of proliferation ([2]; RNIP 2.5 μg/ml): 72%
Percent inhibition of proliferation ([2]; RNIP 5.0 μg/ml): 83%
Percent inhibition of proliferation (Streptococcus pneumoniae; RNIP 0.6 μg/ml): 31%
Percent inhibition of proliferation (Streptococcus pneumoniae; RNIP 1.25 μg/ml): 47%
Percent inhibition of proliferation (Streptococcus pneumoniae; RNIP 2.5 μg/ml): 68%
Percent inhibition of proliferation (Streptococcus pneumoniae; RNIP 5.0 μg/ml): 93%
Percent inhibition of proliferation (Streptococcus pyogenes; RNIP 0.6 μg/ml): 74%
Percent inhibition of proliferation (Streptococcus pyogenes; RNIP 1.25 μg/ml): 79%
Percent inhibition of proliferation (Streptococcus pyogenes; RNIP 2.5 μg/ml): 90%
Percent inhibition of proliferation (Streptococcus pyogenes; RNIP 5.0 μg/ml): 96%
effect on LPS-induced inhibition of RAW 264.7 cell proliferation (RAW 264.7 cells [3]): reverses the inhibition of proliferation
inhibition of LPS-induced tissue factor generation, peptide added after LPS ([4]; added as late as 3 hours after the LPS stimulus): Significant inhibition
inhibition of LPS induced tissue factor (in words) ([4]; peptides 1 μg/ml incubated with S. minnesota smooth LPS 5 minutes, 6 hr): inhibition
inhibition of Echis carinatus venom activation of purified factor II to IIa (in words) (prothrombin (factor II)): inhibited
IC50, anti-bacterial activity (E. coli O9:K39 K- strain): 0.68 mg/L
IC50 (E. coli O9:K39 K- strain; read-out: IC50, anti-bacterial activity): 0.11 µM
